Source: patent US12215116B2, “Arginase inhibitors and methods of use” (Merck Sharp & Dohme LLC, priority 2018, dated 2025)

Target: T1, Arginase (ARG1 enzyme) (Homo sapiens, UniProt P05089)
T1 construct: made in house; host or cells: Escherichia coli
T1 sequence (P05089 1-322): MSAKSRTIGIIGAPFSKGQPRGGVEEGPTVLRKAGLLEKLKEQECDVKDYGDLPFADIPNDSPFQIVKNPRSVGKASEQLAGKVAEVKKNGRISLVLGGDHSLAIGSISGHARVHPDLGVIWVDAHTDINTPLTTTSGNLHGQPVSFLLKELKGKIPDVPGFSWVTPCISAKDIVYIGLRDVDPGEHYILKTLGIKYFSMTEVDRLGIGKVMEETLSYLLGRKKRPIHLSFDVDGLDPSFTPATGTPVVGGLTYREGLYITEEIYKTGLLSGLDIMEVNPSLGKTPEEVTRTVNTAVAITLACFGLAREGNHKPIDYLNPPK
Assay: Arginase Thioornithine Generating Assay (TOGA)
Format: biochemical
Details: 1.88 nM arginase, thioarginine substrate, fluorescence readout
Experimental: Arginase Thioornithine Generating Assay (TOGA)
Compounds were serially diluted in ten 3-fold steps in DMSO starting from 10 mM DMSO stocks. Compound dilutions or DMSO alone were then dispensed from the dilution plate into a Greiner black 384-well assay plate (catalog #781086) using an Echo 555 acoustic liquid handler (Labcyte).
Arginase protein was recombinantly expressed in Escherichia coli. Purified protein was then diluted in assay buffer (50 mM Tris pH 7.5, 50 mM NaCl, 1 mM manganese chloride, 0.05% bovine serum albumin to obtain a final Arginase concentration of 1.88 nM. Arginase solution (20 μL) or buffer alone (20 μL) were dispensed to wells of the assay plate using a BioRAPTR liquid dispenser (Beckman Coulter). Assay plates containing compound and ARG1 enzyme were incubated at room temperature for 30 minutes. Afterwards, 5 μL of 2.5 mM thioarginine (Cayman Chemicals) in assay buffer were added to each well of the assay plate using a BioRAPTR liquid dispenser. Plates were incubated at room temperature for 60 minutes and reactions were quenched by addition of 15 μL of […] 7-Diethylamine-3-(4-maleimidophenyl)-4-methylcoumarin (Sigma Chemical) in 70% ethanol. Plates were briefly shaken to mix and the fluorescence was measured in an Spectramax plate reader (Molecular Devices) with a 410 nm excitation wavelength and an 490 nm emission wavelength.
Potencies were calculated by […] to the four parameter logistic IC50 equation.

Compound | IC50 [µM]
NCC1(C(=O)O)CCC(CCB(O)O)C1 (mixture of isomers) [Example 95, 1-(aminomethyl)-3-(2-boronoethyl)cyclopentane-1-carboxylic acid] | > 10
NC[C@]1(C(=O)O)NCC[C@H]1CCCB(O)O (relative stereo) [Example 57A, 2-(aminomethyl)-3-(3-boronopropyl)pyrrolidine-2-carboxylic acid] | 0.112
O=C(O)[C@@H]1NCCC[C@@H]1CCCB(O)O (single isomer, unassigned) [Example 1A] | 3.66
O=C(O)[C@H]1NCCC[C@H]1CCCB(O)O (single isomer, unassigned) [Example 1B] | 0.377
O=C(O)[C@H]1NCCC[C@@H]1CCCB(O)O (single isomer, unassigned) [Example 1D] | 22.8
O=C(O)[C@H]1NCC[C@H]1CCCB(O)O (single isomer, unassigned) [Example 9A] | 0.018
O=C(O)C1NCC[C@@H]1CCCB(O)O (single isomer, unassigned) [Example 9B] | 8.04
O=C(O)[C@H]1NC[C@@H](O)[C@@H]1CCCB(O)O (single isomer, unassigned) [Example 20A] | 0.475
O=C(O)C1CNCC1CCCB(O)O (single isomer, unassigned) [Example 21A, 4-[3-(dihydroxyboranyl)propyl]pyrrolidine-3-carboxylic acid] | > 10
O=C(O)C1CNCC1CCCB(O)O (single isomer, unassigned) [Example 21B, 4-[3-(dihydroxyboranyl)propyl]pyrrolidine-3-carboxylic acid] | 0.602
O=C(O)C1CNCC1CCCB(O)O (single isomer, unassigned) [Example 21C, 4-[3-(dihydroxyboranyl)propyl]pyrrolidine-3-carboxylic acid] | > 10
O=C(O)C1CNCC1CCCB(O)O (single isomer, unassigned) [Example 21D, 4-[3-(dihydroxyboranyl)propyl]pyrrolidine-3-carboxylic acid] | 1.52
NC1CN[C@H](C(=O)O)C1CCCB(O)O (single isomer, unassigned) [Example 33A] | > 10
NC1CN[C@H](C(=O)O)C1CCCB(O)O (single isomer, unassigned) [Example 33B] | > 10
NC[C@]1(C(=O)O)NCC[C@H]1CCCB(O)O (single isomer, unassigned) [Example 57B] | 5.71
O=C(O)[C@]1(CO)NCC[C@H]1CCCB(O)O (single isomer, unassigned) [Example 59B] | 0.133
NC1(C(=O)O)CNCC1(CO)CCCB(O)O (single isomer, unassigned) [Example 94A, 3-amino-4-(3-boronopropyl)-4-(hydroxymethyl)pyrrolidine-3-carboxylic acid] | 3.08
NC1(C(=O)O)CNCC1(CO)CCCB(O)O (single isomer, unassigned) [Example 94B] | 0.94
O=C(O)C1NCCCC1CCCB(O)O (centres unmarked) [Example 1, 3-[3-(dihydroxyboranyl)propyl]piperidinyl-2-carboxylic acid] | 0.66
O=C(O)[C@@H]1NCCC[C@H]1CCCB(O)O [Example 1C, (2R,3R)-3-[3-(dihydroxyborany)propy]piperidinyl-2-carboxylic acid] | 83.3
O=C(O)C1(CCN2CCCCC2)NCCCC1CCCB(O)O (centres unmarked) [Example 2, 3-[3-(dihydroxyboranyl)propyl]-2-[2-(piperidin-1-yl)ethyl]piperidinyl-2-carboxylic acid] | 0.396
O=C(O)C1NCCCC1OCCB(O)O (centres unmarked) [Example 3, 3-[2-(dihydroxyboranyl)ethoxy]piperidinyl-2-carboxylic acid] | > 10
O=C(O)C1CC(CCB(O)O)CCN1 (centres unmarked) [Example 4, 4-[2-(dihydroxyboranyl)ethyl]piperidinyl-2-carboxylic acid] | 19.8
O=C(O)C1(CCN2CCCCC2)CC(CCB(O)O)CCN1 (centres unmarked) [Example 5, 4-[2-(dihydroxyboranyl)ethyl]-2-[2-(piperidin-1-yl)ethyl]piperidinyl-2-carboxylic acid] | 1.33

Compound | IC50 [µM]
O=C(O)C1CNCCC1CCCB(O)O (centres unmarked) [Example 6, 4-[3-(dihydroxyboranyl)propyl]piperidinyl-3-carboxylic acid] | 57.5
O=C(O)C1NCCNC1CCCB(O)O (centres unmarked) [Example 7, 3-[3-(dihydroxyboranyl)propyl]piperazine-2-carboxylic acid] | 99
O=C(O)[C@H]1NC[C@@H]1CCCB(O)O [Example 8A, (2S,3S)-3-[3-(dihydroxyboranyl)propyl]azetidine-2-carboxylic acid] | 0.34
O=C(O)[C@H]1NC[C@H]1CCCB(O)O [Example 8B, (2S,3R)-3-[3-(dihydroxyboranyl)propyl]azetidine-2-carboxylic acid] | 0.447
O=C(O)[C@H]1NCCC1CCCB(O)O (stereo partly drawn) [Example 9, 3-[3-(dihydroxyboranyl)propyl]-L-proline] | 0.113
O=C(O)C1C(CCCB(O)O)CCN1CCN1CCCCC1 (centres unmarked) [Example 10, 3-(3-boronopropyl)-1-(2-(piperidin-1-yl)ethyl)pyrrolidine-2-carboxylic acid] | 12.9
O=C(O)C1(CCN2CCCCC2)NCCC1CCCB(O)O (centres unmarked) [Example 11, 3-(3-boronopropyl)-2-(2-(piperidin-1-yl)ethyl)pyrrolidine-2-carboxylic acid] | 0.084
OCC1NCCC1CCCB(O)O (centres unmarked) [Example 12, {3-[2-(hydroxymethyl)pyrrolidin-3-yl]propyl}boronic acid] | 3.81
CC1(C)[C@H]2C[C@@H]3OB(CCC[C@@H]4CCN[C@@H]4C(=O)O)O[C@]3(C)[C@@H]1C2 [Example 13, (3R)-3-{3-[(3aR,4R,6R,7aS)-3a,5,5-trimethylhexahydro-4,6-methano-1,3,2-benzodioxaborol-2-yl]propyl}-L-proline] | 0.03
C[C@@]1(CCCB(O)O)CCN[C@@H]1C(=O)O [Example 14, (3R)-3-[3-(dihydroxyboranyl)propyl]-3-methyl-L-proline] | 0.016
O=C(O)[C@@H]1NCC[C@H]1CCCB(O)O [Example 15A, (3R)-3-[3-(dihydroxyboranyl)propyl]-D-proline] | > 10
O=C(O)[C@H]1NCC[C@@H]1CCCB(O)O [Example 15B, (3S)-3-[3-(dihydroxyboranyl)propyl]-L-proline] | 0.413
C[C@]1(C(=O)O)NCC[C@H]1CCCB(O)O [Example 16A, (3R)-3-[3-(dihydroxyboranyl)propyl]-2-methyl-L-proline] | 0.07
C[C@@]1(C(=O)O)NCC[C@@H]1CCCB(O)O [Example 16B, (3S)-3-[3-(dihydroxyboranyl)propyl]-2-methyl-D-proline] | 2.26
C[C@@]1(C(=O)O)NCC[C@H]1CCCB(O)O [Example 16C, (3R)-3-[3-(dihydroxyboranyl)propyl]-2-methyl-D-proline] | 1.45
CC1CC(CCCB(O)O)[C@@H](C(=O)O)N1 (some centres unmarked) [Example 17, 3-[3-(dihydroxyboranyl)propyl]-5-methylproline] | > 10
O=C(O)[C@@H]1CC(CCB(O)O)CN1 (some centres unmarked) [Example 18, 4-[2-(dihydroxyboranyl)ethyl]proline] | 8.73
O=C(O)[C@]1(CCN2CCCCC2)CC(CCB(O)O)CN1 (some centres unmarked) [Example 19, 4-[2-(dihydroxyboranyl)ethyl]-2-[2-(piperidin-1-yl)ethyl]proline] | 5.37
O=C(O)[C@H]1NC[C@@H](O)[C@H]1CCCB(O)O [Example 20B, (3S,4S) 3-[3-(dihydroxyboranyl)propyl]-4-hydroxy-L-proline] | > 10
CC1(C)[C@H]2C[C@@H]3OB(CCC[C@]4(C)CCN[C@@H]4C(=O)O)O[C@]3(C)[C@@H]1C2 [Example 22, (2S,3R)-3-methyl-3-(3-((3aR,4R,6R,7aS)-3a,5,5-trimethylhexahydro-4,6-methanobenzo[d][1,3,2]dioxaborol-2-yl)propyl)pyrrolidine-2-carboxylic acid] | 0.151
O=C(O)[C@H]1NC[C@H](N2CCCC2)[C@H]1CCCB(O)O [Example 25, (3′R,4′S,5′S)-4′-(3-boronopropyl)-[1,3′-bipyrrolidine]-5′-carboxylic acid] | 0.522
O=C(O)[C@H]1NC[C@H](NCC(F)(F)F)[C@H]1CCCB(O)O [Example 26, (2S,3R,4R)-3-(3-boronopropyl)-4-((2,2,2-trifluoroethyl)amino)pyrrolidine-2-carboxylic acid] | 0.12
O=C(O)[C@H]1NC[C@H](NCC(F)F)[C@H]1CCCB(O)O [Example 27, (2S,3R,4R)-3-(3-boronopropyl)-4-((2,2-difluoroethyl)amino)pyrrolidine-2-carboxylic acid] | 0.128
